Some test systems named below: ACHN renal; HCT-116 colon; HOP-62 NSCLC; K-562 leukemia; LOX IMVI melanoma; SF-295 CNS; SF-539 CNS; SK-MEL-28 melanoma; SW-620 colon; TK-10 renal.
Assay in all cases: NCI anticancer screen, dose series, 48 h

The results in this text go back to PubChem BioAssay (NCI).

Each structure is given as a SMILES string.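 All cell lines were grown in 96-well plates and treated with compound for 48 hours. GI50 is the concentration that inhibits growth by half. The concentration for full growth arrest is given as TGI.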

Turning to `CC[N+](CC)=c1ccc2nc3c(cc(NCc4ccccc4)c4ccccc43)oc-2c1`, the GI50 is 0.398 µM in the experiment on ACHN renal; 0.154 µM in the experiment on HCT-116 colon; 0.512 µM with HOP-62 NSCLC; 0.121 µM in the experiment on K-562 leukemia; 0.127 µM with LOX IMVI melanoma; 0.2 µM with SF-295 CNS. Further, the GI50 with SF-539 CNS is 4.19 µM; with SK-MEL-28 melanoma it was 1.2 µM; with SW-620 colon it was 0.302 µM; in the experiment with TK-10 renal, 0.671 µM. The TGI in the experiment on ACHN renal was 1.98 µM; in the experiment on HCT-116 colon it was 0.709 µM; in the experiment with HOP-62 NSCLC, 1.86 µM; in the experiment with K-562 leukemia, 0.724 µM; in the experiment with LOX IMVI melanoma it was 0.299 µM; in the experiment with SF-295 CNS, 0.51 µM. Besides, the TGI in the experiment with SF-539 CNS was 21.2 µM; in the experiment with SK-MEL-28 melanoma, 2.47 µM; with SW-620 colon it was 1.4 µM; in the experiment with TK-10 renal, 2.29 µM.

On to `CC1C=C(OC(=O)c2ccccc2)C(=O)C(n2cc(F)c(=O)n(C(=O)c3ccccc3)c2=O)O1` (stereo not given), for which the TGI is over 100 µM in the experiment with ACHN renal; over 100 µM with HCT-116 colon; over 100 µM in the experiment on HOP-62 NSCLC; 55.1 µM in the experiment on K-562 leukemia; 55 µM with LOX IMVI melanoma; over 100 µM in the experiment with SF-295 CNS. Further, the TGI in the experiment on SF-539 CNS was over 100 µM; with SK-MEL-28 melanoma, over 100 µM; in the experiment with SW-620 colon, 96.6 µM; with TK-10 renal, over 100 µM.

For the molecule `COc1cc(NN=C(c2ccc(O)cc2)c2ccc(O)cc2)c([N+](=O)[O-])cc1[N+](=O)[O-]`, the GI50 was 5.23 µM with ACHN renal; 9.33 µM in the experiment on HCT-116 colon; 5.29 µM in the experiment with HOP-62 NSCLC; 3.92 µM with K-562 leukemia; 3.76 µM with LOX IMVI melanoma; 1.73 µM in the experiment with SF-295 CNS. Also, the GI50 in the experiment on SF-539 CNS is 13 µM; in the experiment on SK-MEL-28 melanoma it was 15.3 µM; with SW-620 colon it was 15.2 µM; with TK-10 renal it was 4.69 µM. Moreover, the TGI with ACHN renal is 20.3 µM; in the experiment on HCT-116 colon, 21.8 µM; in the experiment with HOP-62 NSCLC, 20.3 µM; with K-562 leukemia, over 100 µM; in the experiment on LOX IMVI melanoma, 18.6 µM; in the experiment with SF-295 CNS, 16.5 µM. Also, the TGI with SF-539 CNS came out at 27.7 µM; in the experiment with SK-MEL-28 melanoma, 33.9 µM; with SW-620 colon, 33.6 µM; with TK-10 renal, 19.9 µM.
